Results on 69 compounds are retold here after patent US20240262804A1, “NITROGEN-CONTAINING HETEROCYCLIC KETONES, PREPARATION METHODS AND MEDICINAL USES THEREOF” (Hansoh Bio LLC, priority 2021, published 2024).

Molecules are shown by their SMILES.

Sequence of bovine cardiac myosin (Q9BE39 whole entry): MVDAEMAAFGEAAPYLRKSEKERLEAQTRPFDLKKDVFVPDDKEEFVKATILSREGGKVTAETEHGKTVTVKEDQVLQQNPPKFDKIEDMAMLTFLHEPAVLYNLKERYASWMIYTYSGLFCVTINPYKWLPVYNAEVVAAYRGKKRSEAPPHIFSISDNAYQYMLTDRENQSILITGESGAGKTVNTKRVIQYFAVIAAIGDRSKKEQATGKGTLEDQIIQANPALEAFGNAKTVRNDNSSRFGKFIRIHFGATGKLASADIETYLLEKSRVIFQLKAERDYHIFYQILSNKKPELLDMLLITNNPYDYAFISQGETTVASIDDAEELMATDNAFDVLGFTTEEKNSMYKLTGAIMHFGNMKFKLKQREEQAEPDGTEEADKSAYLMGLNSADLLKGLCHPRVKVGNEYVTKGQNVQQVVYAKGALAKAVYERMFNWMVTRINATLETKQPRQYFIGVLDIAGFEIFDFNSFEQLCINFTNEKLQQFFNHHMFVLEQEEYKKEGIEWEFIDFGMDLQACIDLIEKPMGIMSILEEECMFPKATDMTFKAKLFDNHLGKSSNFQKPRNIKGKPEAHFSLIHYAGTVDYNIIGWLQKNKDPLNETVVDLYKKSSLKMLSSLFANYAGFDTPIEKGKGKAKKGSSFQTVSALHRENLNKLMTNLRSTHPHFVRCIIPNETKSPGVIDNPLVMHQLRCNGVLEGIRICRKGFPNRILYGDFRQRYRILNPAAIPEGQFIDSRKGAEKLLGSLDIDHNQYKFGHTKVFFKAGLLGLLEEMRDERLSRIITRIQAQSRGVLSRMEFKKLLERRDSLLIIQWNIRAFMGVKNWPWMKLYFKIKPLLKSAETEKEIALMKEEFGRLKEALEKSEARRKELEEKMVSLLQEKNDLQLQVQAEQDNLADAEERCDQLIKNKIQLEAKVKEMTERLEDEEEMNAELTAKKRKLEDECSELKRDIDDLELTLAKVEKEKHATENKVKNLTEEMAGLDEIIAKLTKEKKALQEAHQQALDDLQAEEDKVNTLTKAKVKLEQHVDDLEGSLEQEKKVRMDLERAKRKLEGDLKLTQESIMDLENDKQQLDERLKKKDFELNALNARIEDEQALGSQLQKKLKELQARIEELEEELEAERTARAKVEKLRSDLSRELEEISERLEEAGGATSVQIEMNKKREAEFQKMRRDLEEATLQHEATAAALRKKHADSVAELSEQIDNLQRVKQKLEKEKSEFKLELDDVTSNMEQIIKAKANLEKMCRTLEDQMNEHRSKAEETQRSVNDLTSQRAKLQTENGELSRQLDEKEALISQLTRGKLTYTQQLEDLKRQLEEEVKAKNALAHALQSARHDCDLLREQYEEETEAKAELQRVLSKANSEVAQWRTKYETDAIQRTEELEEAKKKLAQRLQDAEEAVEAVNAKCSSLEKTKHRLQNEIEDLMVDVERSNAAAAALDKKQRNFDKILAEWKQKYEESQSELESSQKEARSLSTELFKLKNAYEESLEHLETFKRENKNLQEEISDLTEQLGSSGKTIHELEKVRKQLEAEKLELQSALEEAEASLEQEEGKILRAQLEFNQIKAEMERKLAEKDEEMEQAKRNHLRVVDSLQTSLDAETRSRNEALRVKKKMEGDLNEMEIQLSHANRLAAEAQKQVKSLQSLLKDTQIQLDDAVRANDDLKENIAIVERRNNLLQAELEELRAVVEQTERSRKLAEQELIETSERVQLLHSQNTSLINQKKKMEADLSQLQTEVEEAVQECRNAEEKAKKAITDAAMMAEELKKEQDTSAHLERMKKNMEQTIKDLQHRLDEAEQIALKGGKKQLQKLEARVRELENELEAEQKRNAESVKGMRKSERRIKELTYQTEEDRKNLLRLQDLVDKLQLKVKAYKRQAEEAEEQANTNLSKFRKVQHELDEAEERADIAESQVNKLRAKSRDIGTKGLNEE
Sequence of bovine cardiac myosin (P85100 whole entry partner): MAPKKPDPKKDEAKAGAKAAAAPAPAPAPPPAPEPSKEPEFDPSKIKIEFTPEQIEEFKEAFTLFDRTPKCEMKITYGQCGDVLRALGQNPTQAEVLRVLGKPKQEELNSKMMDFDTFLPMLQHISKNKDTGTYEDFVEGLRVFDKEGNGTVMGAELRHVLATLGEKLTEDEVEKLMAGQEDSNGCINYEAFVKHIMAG
Sequence of bovine cardiac myosin (Q3SZE5 whole entry partner): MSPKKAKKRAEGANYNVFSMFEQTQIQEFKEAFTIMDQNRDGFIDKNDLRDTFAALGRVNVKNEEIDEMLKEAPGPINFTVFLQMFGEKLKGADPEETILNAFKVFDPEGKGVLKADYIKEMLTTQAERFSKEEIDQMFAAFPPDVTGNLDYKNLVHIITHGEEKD

For the experiment, the target named is bovine cardiac myosin (Bos taurus (Bovine), UniProt Q9BE39). The experiment in a line: Myosin inhibitory potency: PK/LDH-coupled ATPase assay on bovine skinned cardiac myofibrils. The settings on record: pCa=6.25, 50 μM ATP, 25° C., read-out: myosin inhibition activity IC50. The format is biochemical. The essentials:
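Bovine left-ventricle skinned myofibrils (1 mg/mL) in PM12 buffer pH 6.8 at pCa 6.25, 50 μM ATP, PK/LDH-coupled NADH depletion read at 340 nm, 25 °C.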
For orientation: IC50 means the point on the concentration scale where inhibition reaches its midpoint. Regarding `CC(C)n1c(=O)nc(N[C@H](c2cccc(C(C)(C)C#N)c2)C(F)F)[nH]c1=O` [Example 264], the half-maximal inhibitory concentration (IC50) is 1.37 µM. Regarding `CC(C)n1c(=O)nc(N[C@H](c2cccc(C(O)C3CC3)c2)C(F)F)[nH]c1=O` (stereo partly drawn) [Example 265], the 50% inhibitory concentration (IC50) was 1.1 µM. In the case of `CC(O)c1cccc([C@@H](Nc2nc(=O)n(C3CCOCC3)c(=O)[nH]2)C(F)F)c1` (stereo partly drawn) [Example 266], the IC50 is 1.98 µM. With `CC(O)c1cccc([C@@H](Nc2nc(=O)n(C(C)C)c(=O)[nH]2)C(F)F)c1` (stereo partly drawn) [Example 267] the figure was 0.41 µM; with `CC(C)(C#N)c1cccc([C@@H](Nc2nc(=O)n(C3CCOCC3)c(=O)[nH]2)C(F)F)c1` [Example 268], 1.07 µM; with `COC[C@H](Nc1nc(=O)n(C2CCOCC2)c(=O)[nH]1)c1ccc(F)cc1F` [Example 269], 1.77 µM.

`O=c1nc(N[C@H](c2cccc(Br)c2)C(F)F)[nH]c(=O)n1C1CCOCC1` [Example 270]: the IC50 amounted to 0.55 µM. Regarding `CC(C)n1c(=O)nc(N[C@@H](C)c2cccc([C@@H](C)O)c2)[nH]c1=O` [Example 271], the IC50 is 0.87 µM.

As to `Cc1cc([C@@H](C)Nc2nc(=O)n(C3CCOCC3)c(=O)[nH]2)c(F)cc1F` [Example 272], the IC50 came to 0.37 µM. Take `CC(=O)N1CC(c2cccc([C@H](C)Nc3nc(=O)n(C4CCOCC4)c(=O)[nH]3)c2)C1` [Example 273]: the 50% inhibitory concentration (IC50) is 0.58 µM. With `C[C@H](Nc1nc(=O)n(C2CCOCC2)c(=O)[nH]1)c1cccc(CC(F)(F)F)c1` [Example 274] the figure was 0.39 µM; with `COCC(Nc1nc(=O)n(C(C)C)c(=O)[nH]1)c1cc(C)ccc1F` (stereo not drawn) [Example 275], 1.81 µM. With `C[C@H](Nc1nc(=O)n(C2CCOCC2)c(=O)[nH]1)c1cccc(C(C)(C)C#N)c1` [Example 276] the figure was 0.15 µM. With `CC(C#N)c1cccc([C@H](C)Nc2nc(=O)n(C3CCOCC3)c(=O)[nH]2)c1` (stereo partly drawn) [Example 277] the figure was 0.24 µM; with `COC[C@@H](Nc1nc(=O)n(C2CCOCC2)c(=O)[nH]1)c1cc(C)ccc1F` [Example 278], 0.63 µM; with `Cc1cccc([C@@H](Nc2nc(=O)n(C3CCOCC3)c(=O)[nH]2)C(F)(F)F)c1` [Example 279], 0.72 µM. For the compound `Cc1cccc([C@H](Nc2nc(=O)n(C3CCOCC3)c(=O)[nH]2)C(F)(F)F)c1` [Example 280], the concentration for half-maximal inhibition (IC50) was 2.43 µM. Turning to `C[C@H](Nc1nc(=O)n([C@H]2CCOC[C@H]2F)c(=O)[nH]1)c1ccc(F)cc1F` [Example 281], the IC50 amounted to 2.26 µM.

With `CO[C@H]1COCC[C@@H]1n1c(=O)nc(N[C@@H](C)c2cc(C)ccc2F)[nH]c1=O` [Example 282], the half-maximal inhibitory concentration (IC50) turned out to be 0.9 µM.

`CO[C@@H]1COCC[C@H]1n1c(=O)nc(N[C@@H](C)c2cc(C)ccc2F)[nH]c1=O` [Example 283]: the half-maximal inhibitory concentration (IC50) came out at 1.09 µM. As to `Cc1cccc([C@H](Nc2nc(=O)n(C3CCOCC3)c(=O)[nH]2)C(F)F)c1` [Example 284], the IC50 was 0.29 µM. Regarding `COC[C@H](Nc1nc(=O)n(C(C)C)c(=O)[nH]1)c1cccc(C)c1` [Example 285], the half-maximal inhibitory concentration (IC50) was 0.51 µM. With `C[C@H](Nc1nc(=O)n(C2CCOCC2)c(=O)[nH]1)c1cccc([C@@H](C)O)c1` [Example 286] the figure was 0.24 µM.

Regarding `CC(C)[C@@H](O)c1cccc([C@H](C)Nc2nc(=O)n(C3CCOCC3)c(=O)[nH]2)c1` [Example 287], the IC50 was found to be 0.54 µM. As for `C[C@H](Nc1nc(=O)n(C2CCOCC2)c(=O)[nH]1)c1cccc(C2CN(CC(F)(F)F)C2)c1` [Example 288], the 50% inhibitory concentration (IC50) is 0.36 µM. With `CC(=O)N1CCC(c2cccc([C@H](C)Nc3nc(=O)n(C(C)C)c(=O)[nH]3)c2)CC1` [Example 289] the figure was 1.8 µM; with `C[C@H](Nc1nc(=O)n(C2CCOCC2)c(=O)[nH]1)c1cccc(C2CCN(CC(F)(F)F)CC2)c1` [Example 290], 2.21 µM; with `C[C@H](Nc1nc(=O)n(C2CCOCC2)c(=O)[nH]1)c1cccc([C@H](O)C(F)(F)F)c1` [Example 291], 0.85 µM.

Regarding `CCC(Nc1nc(=O)n(C2CCOCC2)c(=O)[nH]1)c1cccc(C)c1` (stereo not drawn) [Example 292], the IC50 turned out to be 0.91 µM. With `CC(C)n1c(=O)nc(N[C@@H](C)c2cccc(C3CCNCC3)c2)[nH]c1=O` [Example 293] the figure was 2.81 µM; with `COC[C@H](Nc1nc(=O)n(C2CCOCC2)c(=O)[nH]1)c1cccc(C)c1` [Example 294], 0.88 µM. The same measure for `CC(C)n1c(=O)nc(N[C@@H](C)c2cccc(C3CCOCC3)c2)[nH]c1=O` [Example 295]: 1.36 µM. The same measure for `Cc1cc([C@H](C)Nc2nc(=O)n([C@@H]3CCOC[C@@H]3F)c(=O)[nH]2)ccc1F` [Example 296]: 0.86 µM; for `Cc1cc([C@H](C)Nc2nc(=O)n([C@H]3CCOC[C@H]3F)c(=O)[nH]2)ccc1F` [Example 297]: 1.59 µM. `C[C@H](Nc1nc(=O)n(C2CCOCC2)c(=O)[nH]1)c1ccc2c(c1)OC(F)(F)O2` [Example 298]: the IC50 is 0.88 µM.

Regarding `CO[C@@H]1COCC[C@H]1n1c(=O)nc(N[C@@H](C)c2cccc(C)c2)[nH]c1=O` [Example 299], the half-maximal inhibitory concentration (IC50) turned out to be 1.18 µM.

As for `C[C@H](Nc1nc(=O)n(C2CCN(CCF)CC2)c(=O)[nH]1)C1CCCCC1` [Example 300], the IC50 was found to be 2.29 µM. With `Cc1cccc([C@H](C)Nc2nc(=O)n(C3CCN(CCF)CC3)c(=O)[nH]2)c1` [Example 301] the figure was 0.8 µM. The same measure for `Cc1ccc(F)c([C@H](C)Nc2nc(=O)n([C@H](C)C(F)(F)F)c(=O)[nH]2)c1` [Example 302]: 0.88 µM. Regarding `Cc1ccc(F)c([C@H](C)Nc2nc(=O)n([C@H](C3CC3)C(F)(F)F)c(=O)[nH]2)c1` [Example 303], the half-maximal inhibitory concentration (IC50) worked out at 0.56 µM. The same measure for `COC[C@H](Nc1nc(=O)n(C2CCOCC2)c(=O)[nH]1)c1ccccc1` [Example 304]: 1.78 µM; for `Cc1cc([C@H](C)Nc2nc(=O)n(C(C)C)c(=O)[nH]2)ccc1F` [Example 305]: 0.95 µM; for `C[C@@H](Nc1nc(=O)n(C2CCOCC2)c(=O)[nH]1)c1cccc(C2CC2)c1` [Example 306]: 1.22 µM. The same measure for `CC(C)n1c(=O)nc(N[C@@H](C)c2cccc(C(C)(C)O)c2)[nH]c1=O` [Example 307]: 1.87 µM; for `CC(C)c1cccc([C@H](C)Nc2nc(=O)n(C3CCOCC3)c(=O)[nH]2)c1` [Example 308]: 1 µM; for `C[C@H](Nc1nc(=O)n([C@@H]2CCOC[C@@H]2F)c(=O)[nH]1)c1cccc(C(F)(F)F)c1` [Example 309]: 1.61 µM. With `C[C@H](Nc1nc(=O)n([C@H]2CCOC[C@H]2F)c(=O)[nH]1)c1cccc(C(F)(F)F)c1` [Example 310] the figure was 1.49 µM; with `Cc1ccc(F)c([C@H](C)Nc2nc(=O)n([C@@H](C)C(F)(F)F)c(=O)[nH]2)c1` [Example 311], 2.36 µM.

In the case of `Cc1ccc(F)c([C@H](C)Nc2nc(=O)n([C@@H](C3CC3)C(F)(F)F)c(=O)[nH]2)c1` [Example 312], the IC50 amounted to 1.44 µM. With `Cc1ccc(F)c([C@H](C)Nc2nc(=O)n([C@@H]3CCOC[C@@H]3F)c(=O)[nH]2)c1` [Example 313] the figure was 1.37 µM. Consider `Cc1ccc(F)c([C@H](C)Nc2nc(=O)n([C@H]3CCOC[C@H]3F)c(=O)[nH]2)c1` [Example 314], for which the concentration for half-maximal inhibition (IC50) was 0.77 µM. For `Cc1cccc([C@H](C)Nc2nc(=O)n([C@@H]3CCOC[C@@H]3F)c(=O)[nH]2)c1` [Example 315], the IC50 amounted to 1.47 µM. For the compound `Cc1cccc([C@H](C)Nc2nc(=O)n([C@H]3CCOC[C@H]3F)c(=O)[nH]2)c1` [Example 316], the IC50 is 1.23 µM. With `Cc1cccc([C@H](CO)Nc2nc(=O)n(C3CCOCC3)c(=O)[nH]2)c1` [Example 317] the figure was 2.85 µM. With `C[C@@H](Nc1nc(=O)n(C2CCOCC2)c(=O)[nH]1)c1ccc2c(c1)OC(F)(F)O2` [Example 318] the figure was 1.05 µM; with `CC(Nc1nc(=O)n(C2CCOCC2)c(=O)[nH]1)c1cc(F)ccc1F` (stereo not drawn) [Example 319], 1.28 µM; with `C[C@H](Nc1nc(=O)n([C@@H]2CCOC[C@@H]2F)c(=O)[nH]1)c1ccc(Cl)c(Cl)c1` [Example 320], 1.02 µM. The same measure for `C[C@H](Nc1nc(=O)n([C@H]2CCOC[C@H]2F)c(=O)[nH]1)c1ccc(Cl)c(Cl)c1` [Example 321]: 1.07 µM; for `CC(C)n1c(=O)nc(N[C@@H](C)c2cccc(C(F)(F)F)c2)[nH]c1=O` [Example 322]: 1.21 µM; for `C[C@H](Nc1nc(=O)n([C@H](C)C(F)(F)F)c(=O)[nH]1)c1ccc(Cl)c(Cl)c1` [Example 323]: 0.71 µM.

As for `C[C@H](Nc1nc(=O)n([C@@H](C)C(F)(F)F)c(=O)[nH]1)c1ccc(Cl)c(Cl)c1` [Example 324], the IC50 amounted to 1.06 µM.

Turning to `CC(C)n1c(=O)nc(N[C@@H](C)c2ccc(Cl)c(Cl)c2)[nH]c1=O` [Example 325], the IC50 worked out at 1.17 µM.

In the case of `COc1cccc([C@H](C)Nc2nc(=O)n(C3CCOCC3)c(=O)[nH]2)c1` [Example 326], the half-inhibitory concentration (IC50) was 1.35 µM. With `C[C@H](Nc1nc(=O)n(C2CCOCC2)c(=O)[nH]1)c1cccc(C#N)c1` [Example 327] the figure was 1.27 µM. With `CC(C)c1ccc([C@H](C)Nc2nc(=O)n(C3CCOCC3)c(=O)[nH]2)cc1` [Example 328] the figure was 0.85 µM. With `CC(=O)N1CCC(c2cccc([C@H](C)Nc3nc(=O)n(C4CCOCC4)c(=O)[nH]3)c2)CC1` [Example 329], the concentration for half-maximal inhibition (IC50) stood at 1.24 µM. For `Cc1cc([C@H](C)Nc2nc(=O)n(C3CCOCC3)c(=O)[nH]2)ccc1Cl` [Example 330], the IC50 was determined as 1.08 µM. With `C[C@H](Nc1nc(=O)n(C2CCOCC2)c(=O)[nH]1)c1cccc(C2=CCCCC2)c1` [Example 331] the figure was 1.11 µM. With `C[C@H](Nc1nc(=O)n([C@@H](C)C(F)(F)F)c(=O)[nH]1)c1cccc(C(F)(F)F)c1` [Example 332] the figure was 1.39 µM.
